From PubChem BioAssay (NCI)
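Tested at 5 concentrations; 48 h exposure; 96-well plates; endpoints linearly interpolated, else capped at highest concentration. TGI denotes the concentration required for complete inhibition of growth.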

What was measured:
Assay in all cases: NCI tumour cell line growth inhibition, 48 h
SK-OV-3 ovarian = tested on: SK-OV-3 ovarian
HT29 colon = tested on: HT29 colon
U251 CNS = tested on: U251 CNS
HOP-62 NSCLC = tested on: HOP-62 NSCLC
MOLT-4 leukemia = tested on: MOLT-4 leukemia
ACHN renal = tested on: ACHN renal
SF-539 CNS = tested on: SF-539 CNS
SN12C renal = tested on: SN12C renal
MCF7 breast = tested on: MCF7 breast
UACC-257 melanoma = tested on: UACC-257 melanoma
NCI-H522 lung = tested on: NCI-H522 lung
SW-620 colon = tested on: SW-620 colon
A498 renal = tested on: A498 renal
UO-31 renal = tested on: UO-31 renal
MALME-3M melanoma = tested on: MALME-3M melanoma
MDA-MB-231 breast = tested on: MDA-MB-231 breast
NCI-H23 lung = tested on: NCI-H23 lung
T-47D breast = tested on: T-47D breast
OVCAR-5 ovarian = tested on: OVCAR-5 ovarian
MDA-N = tested on: MDA-N

| Structure (SMILES) | TGI (SK-OV-3 ovarian) [µM] | TGI (HT29 colon) [µM] | TGI (U251 CNS) [µM] | TGI (HOP-62 NSCLC) [µM] | TGI (MOLT-4 leukemia) [µM] | TGI (ACHN renal) [µM] | TGI (SF-539 CNS) [µM] | TGI (SN12C renal) [µM] | TGI (MCF7 breast) [µM] | TGI (UACC-257 melanoma) [µM] | TGI (NCI-H522 lung) [µM] | TGI (SW-620 colon) [µM] | TGI (A498 renal) [µM] | TGI (UO-31 renal) [µM] | TGI (MALME-3M melanoma) [µM] | TGI (MDA-MB-231 breast) [µM] | TGI (NCI-H23 lung) [µM] | TGI (T-47D breast) [µM] | TGI (OVCAR-5 ovarian) [µM] | TGI (MDA-N) [µM] |
| --- | --- | --- | --- | --- | --- | --- | --- | --- | --- | --- | --- | --- | --- | --- | --- | --- | --- | --- | --- | --- |
| O=C(O)c1cc(CC2Cc3cc4c(cc3C2=O)CCC4)cc2c1CCC2 (stereo not drawn) | > 100 | > 100 | > 100 | > 100 | > 100 | > 100 | > 100 | > 100 | > 100 | > 100 | > 100 | > 100 | > 100 | > 100 | > 100 | > 100 | > 100 | > 100 | > 100 | – |
| COC(=O)C1=C(C)NC(C)=C(C(=O)OC)C1c1ccccc1NO | > 100 | > 100 | > 100 | > 100 | > 100 | > 100 | > 100 | > 100 | > 100 | > 100 | > 100 | > 100 | > 100 | > 100 | > 100 | > 100 | > 100 | > 100 | > 100 | – |
| BrC1=CCC23CC=C(Br)[C@H]4CC2(COC3)C[C@@H]1O4 (stereo partly drawn) | – | – | > 100 | > 100 | 86 | > 100 | > 100 | > 100 | – | – | 66.2 | > 100 | – | 82.4 | > 100 | – | > 100 | – | 86.2 | – |
| CN1Cc2cc3cc4c(cc3nc2N(C)C1)OCCO4 | > 100 | > 100 | > 100 | > 100 | > 100 | > 100 | > 100 | > 100 | > 100 | > 100 | > 100 | > 100 | > 100 | – | > 100 | > 100 | – | – | > 100 | > 100 |
| COc1cc(C(=O)/C=C/c2ccc(OCC#N)cc2)cc(OC)c1OC | > 100 | > 100 | 33.4 | 58.6 | 90.7 | 51.8 | 33.2 | 36.3 | 23.3 | > 100 | 35.9 | 37.3 | 65.9 | 31.4 | 33 | – | 43.2 | 36.5 | > 100 | > 100 |
| O=S1(=O)OCCOS(=O)(=O)C1S(=O)(=O)c1ccc2ccccc2c1 | – | > 100 | > 100 | > 100 | > 100 | > 100 | – | > 100 | > 100 | > 100 | – | > 100 | – | > 100 | > 100 | > 100 | > 100 | – | > 100 | > 100 |
| N#CC(C#N)=C1c2ccccc2C(=NN)c2ccccc21 | > 100 | > 100 | > 100 | > 100 | > 100 | > 63.9 | > 100 | > 100 | > 100 | > 100 | > 100 | > 100 | > 100 | > 100 | > 100 | > 100 | – | – | > 100 | > 100 |
| O=C1/C(=c2\s/c(=C\c3ccccc3)c(=O)n2-c2ccccc2)SC(=S)N1c1ccccc1 | 52.1 | > 100 | 81.1 | – | > 100 | 76.2 | 55.6 | > 100 | > 100 | > 100 | – | > 100 | > 100 | – | > 100 | 57.1 | > 100 | – | > 100 | > 100 |
| COc1cc(C=O)cc(/C=N/n2c3ccccc3c3ccccc32)c1O | > 100 | > 100 | > 100 | > 100 | 76.8 | > 100 | > 100 | > 100 | 42.6 | > 100 | 73.2 | > 100 | 48.7 | > 100 | > 100 | > 100 | > 100 | > 100 | > 100 | – |
| CCCc1cc(=O)oc2c3c(c4c(c12)OC(C)(C)CC4)O[C@@H](C)[C@H](C)[C@H]3O | 32.6 | 20.7 | 29.6 | 33.4 | 13.7 | – | 38.2 | 18.9 | 47.3 | 17.7 | – | 36.8 | – | 19 | 28 | 11.1 | 25 | 23.2 | 26.3 | 16.4 |
| CCCCCC(C/C=N/N(C)C)C(O)(C(F)(F)F)C(F)(F)F (stereo not drawn) | > 100 | > 100 | > 100 | > 100 | > 100 | 52.7 | 82.7 | > 100 | – | – | > 100 | > 100 | 56 | > 100 | 67.1 | 70.6 | > 100 | > 100 | > 100 | > 100 |
| COC(=O)/C=C\COCC1C2CCC(=O)C21 (stereo not drawn) | > 25 | > 25 | > 25 | > 25 | 20.7 | > 25 | 19.4 | > 25 | > 25 | > 25 | 7.83 | > 25 | – | > 25 | 13.3 | > 25 | > 25 | – | > 25 | > 25 |
| CCOC(=O)c1nnsc1NC(=O)Nc1ccc(Cc2ccc(NC(=O)Nc3snnc3C(=O)OCC)cc2)cc1 | 54.8 | > 100 | > 100 | > 100 | > 100 | > 100 | – | > 100 | > 100 | > 100 | – | > 100 | – | > 100 | > 100 | 95.6 | > 100 | > 100 | > 100 | > 100 |
| O=c1ccn2n1Cc1ccccc1C2 | > 100 | > 100 | > 100 | > 100 | > 100 | > 100 | > 100 | > 100 | – | > 100 | > 100 | > 100 | > 100 | > 100 | > 100 | > 100 | > 100 | > 100 | > 100 | – |
| c1cncc(C2(c3cc4ccccc4[nH]3)COCO2)c1 (stereo not drawn) | > 100 | > 100 | > 100 | > 100 | > 100 | > 100 | > 100 | – | > 100 | > 100 | – | > 100 | – | > 100 | > 100 | > 100 | > 100 | > 100 | > 100 | – |
| COc1ccc(CCCCl)c(C2=NCCc3cc(OC)c(OC)cc32)c1 | > 100 | > 100 | > 100 | > 100 | > 100 | > 100 | > 100 | > 100 | > 100 | > 100 | > 100 | > 100 | > 100 | > 100 | – | > 100 | > 100 | > 100 | > 100 | – |
| CN1C2=C(CC3=C1CC(C)(C)CC3=O)C(=O)CC(C)(C)C2 | > 100 | > 100 | > 100 | – | > 100 | > 100 | > 100 | > 100 | > 100 | – | – | > 100 | > 100 | > 100 | – | – | > 100 | – | > 100 | – |
| CCN(C(=O)N[C@@H](Cc1ccccc1)C(=O)N[C@@H](CC(C)C)C(=O)OC)c1ccccc1 | > 100 | 27.3 | 72.7 | 70.6 | 44.2 | 51.3 | 36.1 | 43.8 | 62 | 54.3 | 22.6 | 75 | – | 33.3 | – | > 100 | 53.8 | > 100 | 66.6 | > 100 |
| COc1cc(C2=C(c3cc(OC)c4ccccc4c3OC)C(=O)c3ccccc3C2=O)c(OC)c2ccccc12 | > 100 | > 100 | > 100 | > 100 | > 100 | > 100 | > 100 | > 100 | > 100 | > 100 | > 100 | > 100 | > 100 | > 100 | > 100 | – | > 100 | > 100 | > 100 | > 100 |
| C[C@@]1(O)C[C@@H](N2C(=O)O[C@@H](c3ccccc3)[C@H]2c2ccccc2)[C@@H]1COCc1ccccc1 | – | 50.6 | 32.9 | 75.3 | 26.4 | > 100 | 38.4 | 38.5 | > 100 | 36.7 | 38.3 | > 100 | 52.9 | 67.8 | 46.8 | 39.8 | 43.6 | – | 78.2 | 38.5 |
| C/C(=C(/C)c1ccc(O)cc1)c1ccc(O)cc1 | > 100 | > 100 | > 100 | > 100 | > 100 | > 100 | > 100 | > 100 | > 100 | > 100 | > 100 | > 100 | > 100 | > 100 | > 100 | > 100 | > 100 | – | > 100 | > 100 |
| CC(=O)N1C(OC(C)C)CC(C)N1c1ccccc1 (stereo not drawn) | – | > 10 | – | > 10 | > 10 | > 10 | > 10 | > 10 | > 10 | > 10 | – | > 10 | – | – | > 10 | > 10 | > 10 | > 10 | > 10 | > 10 |
| COc1ccc(/C=C2\CCC(CNc3ccc(S(N)(=O)=O)cc3)C2=O)cc1 (stereo not drawn) | > 100 | 25.9 | 39.2 | > 85.6 | > 44.2 | 53.7 | > 59.2 | 35.9 | 14.7 | 40.2 | 10.6 | 19.3 | > 86 | 12.2 | 36 | 35.5 | 39.6 | 43.1 | 42.6 | – |
| O=c1cc(-c2ccccc2)[nH]c2ccc(N3CCOCC3)cc12 | 22.4 | – | > 35.8 | 28.2 | > 100 | > 91 | 0.615 | > 95.3 | > 93.5 | > 100 | 0.404 | > 100 | 73.5 | > 100 | > 100 | > 100 | – | > 100 | > 100 | – |
| CN1CCN(C(=S)N(C(=O)c2ccc(Cl)cc2)c2ccccc2)CC1 | – | > 100 | > 100 | – | > 100 | > 100 | – | > 100 | > 100 | > 100 | > 100 | > 100 | – | > 100 | > 100 | > 100 | > 100 | > 100 | > 100 | > 100 |
| O=c1cc(-c2ccccc2)c2ccccc2[nH]1 | 84.8 | > 100 | > 100 | > 100 | > 100 | > 100 | > 100 | > 100 | – | > 100 | > 100 | > 100 | – | 55.9 | 90.9 | – | > 100 | – | > 100 | – |
| O=c1[nH]nc(-c2ccccc2)n1Nc1ccccc1 | > 100 | > 100 | > 100 | – | > 100 | > 100 | > 100 | > 100 | – | > 100 | > 100 | > 100 | > 100 | > 100 | > 100 | > 100 | > 100 | > 100 | > 100 | > 100 |
